For one data set, the system named is MDA-MB-231 cells. Kind of data set: MTT cell viability assay. Type of data set: cell-based, human. The following applies: for inhibition at 10 µM: Homo sapiens, MDA-MB-231, 48 h, read-out: Antiproliferative activity at 10μM in MDA-MB-231; for inhibition at 10 µM / Antiproliferative activity at 10μM in MDA-MB-231: % inhibition. The protocol:
(§1) Cell viability assay was performed as described previously. Briefly, cells were seeded in 96 well plates and treated with different concentrations of compound 19 for 48 h. After drug treatment, MTT reagent was added in each well of the plate and cell viability was quantified by measuring the absorbance at 590 nm.

Data set [1] concerns 4T1 (Mouse Breast Cancer). Kind of data set: MTT cell viability assay. The settings on record: 10 µM. The data set is classed as cell-based. On the procedure: as §1
In another data set the test system is A172 (Brain). In words: MTT cell viability assay. The data set is classed as cell-based. The protocol: as §1
A further data set relates to A549 (Lung). Kind of data set: MTT cell viability assay. The data set is classed as cell-based. On the procedure: as §1
In another data set the test system is DLD1 (Colon). In words: MTT cell viability assay. The data set is classed as cell-based. The protocol: as §1
The next data set relates to PANC-1 (Pancreas). In words: MTT cell viability assay. The data set is classed as cell-based. The protocol: as §1
The test system of a further data set is PLC/PRF/5 (Liver). In words: MTT cell viability assay. The data set is classed as cell-based. On the procedure:
as §1

A further data set relates to SK-OV-3 (Ovary). In words: MTT cell viability assay. Type of data set: cell-based. On the procedure:
as §1

The target of another data set is T1, FEN1 protein (Homo sapiens, UniProt P39748).
T1 construct: His-tag (C); made in house; host or cells: E. coli BL21DE3
T1 sequence (P39748 whole entry): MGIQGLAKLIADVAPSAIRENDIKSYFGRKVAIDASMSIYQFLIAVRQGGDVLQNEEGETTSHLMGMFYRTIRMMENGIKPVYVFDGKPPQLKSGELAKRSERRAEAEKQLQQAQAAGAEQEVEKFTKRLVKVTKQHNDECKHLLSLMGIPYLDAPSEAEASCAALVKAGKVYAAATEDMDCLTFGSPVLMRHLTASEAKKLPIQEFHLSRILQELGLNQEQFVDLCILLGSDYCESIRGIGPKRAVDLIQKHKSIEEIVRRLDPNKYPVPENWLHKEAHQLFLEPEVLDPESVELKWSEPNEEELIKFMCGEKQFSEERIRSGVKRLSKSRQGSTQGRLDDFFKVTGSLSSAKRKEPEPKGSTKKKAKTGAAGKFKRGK
Kind of data set: Flap cleavage assay. The data set is classed as biochemical. The settings on record: compound 19 at 5, 10, 20 µM. The protocol: Purification of FEN 1: Full length FEN1 DNA template was taken from pShuttle-FEN1hWT, a gift from Sheila Stewart (Addgene plasmid#35027) is subcloned into a pET41a expression vector containing C-terminal His-tag. pET41FEN1His freshly transformed into expression host BL21DE3 E. coli cells (Novagene), single colonies picked and inoculated in 5ml of LB media containing 50μg/ml of Kanamycin, grown for 3 to 4 hrs and further subcultured in 100 ml of LB medium containing 50μg/ml of Kanamycin and grown at 37°C till the OD reached to 0.6-0.7, induced at 0.5 mM IPTG at 16°C for 18hrs. Pellets were collected and lysed in 20 mM tris 150 mM NaCl (Lysis buffer) containing 1mM PMSF and 1mM benzamidine hydrochloride and purified by Ni-NTA affinity chromatography.
Flap cleavage assay: All oligos were purchased from Integrated DNA Technologies and dissolved in nuclase free water at concentration of 100μM. FAM-labeled 25+6 Flap-mer (5’-[…]-3’*6FAM)) was annealed with 52- mer (5’-[…]-3’) and 27-mer (5’-[…]-3’) to form a complementary double strand flap cleavage substrate. […] The cleaved and uncleaved DNA molecules are separated on 15% Urea gel and bands were detected by Image Quant LAS 4010 (GE Healthcare).

Regarding `COc1ccc(/C=C/c2cc(=O)oc3c2ccc2ccccc23)cc1` [Compound 11], the melting point was in the range of 142 to 144 °C. Moreover, in the data set with MDA-MB-231 cells, the inhibition at 10 µM turned out to be 1.46%. As to `CN(C)c1ccc(/C=C/c2cc(=O)oc3c2ccc2ccccc23)cc1` [Compound 12], the “Antiproliferative activity at 10μM in MDA-MB-231” value with MDA-MB-231 cells came to 4.62%.

For the compound `N#Cc1ccc(/C=C/c2cc(=O)oc3c2ccc2ccccc23)cc1` [Compound 14], in the data set on MDA-MB-231 cells, the inhibition at 10 µM is 12.4%.

`COc1cccc(/C=C/c2cc(=O)oc3c2ccc2ccccc23)c1` [Compound 15] yielded a melting point of 145 to 146 °C. As for `COc1cccc(OC)c1/C=C/c1cc(=O)oc2c1ccc1ccccc12` [Compound 16], the melting point lay within 174 to 175 °C. The “% Inhibition of cell viability at 10 µM, MDA-MB-231 (Breast)” value in the data set on MDA-MB-231 cells (10 µM) turned out to be 56.48%. In addition, in the data set with MDA-MB-231 cells, the inhibition at 10 µM was more than 50%. The “% Inhibition of cell viability at 10 µM, 4T1 (Mouse Breast Cancer)” value in data set [1] came to 33.89%. Further, in the data set on A172 (Brain), the “% Inhibition of cell viability at 10 µM, A172 (Brain)” value is given as “NA (NA= Not active (% Inhibition <30%))”. Moreover, the “% Inhibition of cell viability at 10 µM, A549 (Lung)” value in the data set with A549 (Lung) was “NA (NA= Not active (% Inhibition <30%))”. The “% Inhibition of cell viability at 10 µM, DLD1 (Colon)” value in the data set with DLD1 (Colon) is listed as “NA (NA= Not active (% Inhibition <30%))”. For the same compound, the “% Inhibition of cell viability at 10 µM, PANC-1 (Pancreas)” value in the data set on PANC-1 (Pancreas) was “NA (NA= Not active (% Inhibition <30%))”. In addition, in the data set on PLC/PRF/5 (Liver), the “% Inhibition of cell viability at 10 µM, PLC/PRF/5 (Liver)” value is “NA (NA= Not active (% Inhibition <30%))”. Moreover, in the data set with SK-OV-3 (Ovary), the “% Inhibition of cell viability at 10 µM, SK-OV-3 (Ovary)” value is “NA (NA= Not active (% Inhibition <30%))”.

Take `COc1ccc(/C=C/c2cc(=O)oc3c2ccc2ccccc23)cc1OC` [Compound 17]: the melting point is 180 to 182 °C. In the case of `COc1cc(/C=C/c2cc(=O)oc3c2ccc2ccccc23)cc(OC)c1OC` [Compound 18], the melting point lay in the range of 172 to 173 °C. In the data set with MDA-MB-231 cells, the inhibition at 10 µM worked out at 8.2%. For `COc1ccc(OC)c(/C=C/c2cc(=O)oc3c2ccc2ccccc23)c1` [Compound 20] the same measures were 168 to 170 °C and 7.53%.

On to `COc1ccc(/C=C/c2cc(=O)oc3c2ccc2ccccc23)c(OC)c1` [Compound 21], for which the melting point lay within 181 to 183 °C. Further, the inhibition at 10 µM in the data set on MDA-MB-231 cells was determined as 0.16%. The corresponding values for `COc1ccc(/C=C/c2cc(=O)oc3c2ccc2c(OC)cccc23)cc1` [Compound 23] are 170 to 171 °C and 6.04%. `COc1cccc2c1ccc1c(/C=C/c3ccc([N+](=O)[O-])cc3)cc(=O)oc12` [Compound 24] returned a melting point of 220 to 222 °C. The inhibition at 10 µM in the data set with MDA-MB-231 cells came out at 20%. For `COc1cccc2c1ccc1c(/C=C/c3ccc(C#N)cc3)cc(=O)oc12` [Compound 25], the melting point is 188 to 189 °C. For the same compound, in the data set on MDA-MB-231 cells, the inhibition at 10 µM is 27.9%. Consider `COc1cc(/C=C/c2cc(=O)oc3c2ccc2c(OC)cccc23)cc(OC)c1` [Compound 26], for which the “Antiproliferative activity at 10μM in MDA-MB-231” value in the data set with MDA-MB-231 cells is reported as 50.03%. In addition, the “% Inhibition of cell viability at 10 µM, 4T1 (Mouse Breast Cancer)” value in [1] amounted to 36.12%. Moreover, in the data set on A549 (Lung), the “% Inhibition of cell viability at 10 µM, A549 (Lung)” value is reported as “NA (NA= Not active (% Inhibition <30%))”. Further, in the data set with DLD1 (Colon), the “% Inhibition of cell viability at 10 µM, DLD1 (Colon)” value is on record as “NA (NA= Not active (% Inhibition <30%))”. The “% Inhibition of cell viability at 10 µM, PANC-1 (Pancreas)” value with PANC-1 (Pancreas) is recorded as “NA (NA= Not active (% Inhibition <30%))”.

As to `COc1ccc(/C=C/c2cc(=O)oc3c2ccc2c(OC)cccc23)cc1OC` [Compound 27], the inhibition at 10 µM with MDA-MB-231 cells amounted to 8.81%. In turn, `COc1cccc(OC)c1/C=C/c1cc(=O)oc2c1ccc1c(OC)cccc12` [Compound 28] showed a melting point of 178 to 179 °C.

`COc1ccc(OC)c(/C=C/c2cc(=O)oc3c2ccc2c(OC)cccc23)c1` [Compound 29]: the inhibition at 10 µM in the data set on MDA-MB-231 cells amounted to 10.4%. For the compound `COc1ccc(/C=C/c2cc(=O)oc3c2ccc2c(OC)cccc23)c(OC)c1` [Compound 30], the inhibition at 10 µM in the data set with MDA-MB-231 cells is 17.9%.

As for `COc1cc(/C=C/c2cc(=O)oc3c2ccc2c(OC)cccc23)cc(OC)c1OC` [Compound 31], the melting point fell in the range of 205 to 206 °C. In addition, the inhibition at 10 µM in the data set on MDA-MB-231 cells was 1.7%. The corresponding values for `Cc1cccc2c1ccc1c(/C=C/c3ccccc3)cc(=O)oc12` [Compound 32] are 178 to 179 °C and 18.2%.

`Cc1cccc2c1ccc1c(/C=C/c3ccc([N+](=O)[O-])cc3)cc(=O)oc12` [Compound 33] gave a melting point of 238 to 239 °C. Moreover, in the data set with MDA-MB-231 cells, the inhibition at 10 µM is 6.12%. For `COc1cc(/C=C/c2cc(=O)oc3c2ccc2c(C)cccc23)cc(OC)c1` [Compound 34], the inhibition at 10 µM with MDA-MB-231 cells amounted to 0.54%.

With `COc1ccc(/C=C/c2cc(=O)oc3c2ccc2c(C)cccc23)c(OC)c1` [Compound 35], the inhibition at 10 µM with MDA-MB-231 cells is 12.8%. On to `COc1cccc(OC)c1/C=C/c1cc(=O)oc2c1ccc1c(C)cccc12` [Compound 37], for which the melting point was 160 to 161 °C. Moreover, in the data set on MDA-MB-231 cells, the inhibition at 10 µM is 11.6%. With `COc1cc(/C=C/c2cc(=O)oc3c2ccc2c(C)cccc23)cc(OC)c1OC` [Compound 38], in the data set with MDA-MB-231 cells, the inhibition at 10 µM was 22%.

Take `COc1ccc(/C=C/c2cc(=O)oc3c2ccc2c(C)cccc23)cc1OC` [Compound 39]: the inhibition at 10 µM in the data set with MDA-MB-231 cells amounted to 10.1%. With `O=C(O)c1cc[c]([Sb](=[O])([OH])[OH])cc1[N+](=O)[O-]` [NSC13755, reference compound], the “Inhibition of FEN1 flap cleavage activity” value at FEN1 protein is “less clevage”.
